Test results taken from paper PMC2775441 (Pediatric blood & cancer, 2009).
Marks after values point to notes of the source that are not given here.

How the values were obtained:
[1] = ref [11]; cited from earlier work
[2] = tested on: CYP3A4; conditions: ref [33], [39]; cited from earlier work
[3] = adults, interval between successive doses less than 7 days; ref [20]; cited from earlier work
[4] = tested on: refractory pediatric central nervous system tumors; test: Tumor response by neuro-imaging; assay type: in vivo, human
[5] = Phase I dose escalation: dose-limiting toxicity, MTD and adverse events; conditions: human, in vivo
[6] = Plasma pharmacokinetics of SU5416 and its metabolites; assay type: in vivo, human; conditions: for half-life: human, plasma, iv
[7] = adults with solid tumors, ref [16], [18], [23]–[25], [30], cited from earlier work
[8] = Stratum I (no EIACD), 110 mg/m^2 IV, week 1, 13 patients, mean ± SD
[9] = Stratum I (no EIACD), 110 mg/m^2 IV, week 6, 10 patients, mean ± SD
[10] = Stratum I (no EIACD), 145 mg/m^2 IV, week 1, 6 patients, mean ± SD
[11] = Stratum I (no EIACD), 145 mg/m^2 IV, week 6, 3 patients, mean ± SD
[12] = Stratum I (no EIACD), all doses IV, week 6, 13 patients, mean ± SD
[13] = Stratum II (EIACD), 35 mg/m^2 IV, week 1, 1 patient
[14] = Stratum II (EIACD), 48 mg/m^2 IV, week 1, 2 patients, mean ± SD
[15] = Stratum II (EIACD), 65 mg/m^2 IV, week 1, 6 patients, mean ± SD
[16] = Stratum II (EIACD), all doses IV, week 1, 9 patients, mean ± SD
[17] = Stratum I (no EIACD), SU5416 110 mg/m^2 IV, week 1, 13 patients, mean ± SD
[18] = Stratum I (no EIACD), SU5416 110 mg/m^2 IV, week 6, 10 patients, mean ± SD
[19] = Stratum I (no EIACD), SU5416 145 mg/m^2 IV, week 1, 6 patients, mean ± SD
[20] = Stratum I (no EIACD), SU5416 145 mg/m^2 IV, week 6, 3 patients, mean ± SD
[21] = Stratum I (no EIACD), all SU5416 doses IV, week 1, 19 patients, mean ± SD
[22] = Stratum I (no EIACD), all SU5416 doses IV, week 6, 13 patients, mean ± SD
[23] = Stratum II (EIACD), SU5416 35 mg/m^2 IV, week 1, 1 patient
[24] = Stratum II (EIACD), SU5416 48 mg/m^2 IV, week 1, 2 patients, mean ± SD
[25] = Stratum II (EIACD), SU5416 65 mg/m^2 IV, week 1, 6 patients, mean ± SD
[26] = Stratum II (EIACD), all SU5416 doses IV, week 1, 9 patients, mean ± SD

## Cc1cc(C)c(/C=C2\C(=O)Nc3ccccc32)[nH]1 [SU5416, semaxanib]
[1]
  penetration into the CSF: does not penetrate the CSF
[2]
  role of CYP3A4 in elimination of SU5416: major isozyme catalyzing the initial oxidation
[3]
  increase of clearance upon repeated administration: more than 50%
[4]; Pt 1, Glioblastoma Multiforme, Spinal Cord
  Stable Disease Duration (months): 5.3 months
[4]; Pt 1, Glioblastoma Multiforme, tumor size, 1.4 months from treatment
  Change from baseline (%): 0%
[4]; Pt 3, Choroid Plexus Carcinoma, Cerebrum
  Stable Disease Duration (months): 14.3 months
[4]; Pt 8, Glioblastoma Multiforme, FLAIR, 2.7 months from treatment, baseline 32.7
  Tumor size: 35.5 cm^3
[4]; Pt 8, Glioblastoma Multiforme, FLAIR, 8.1 months from treatment, baseline 32.7
  Tumor size: 29.1 cm^3
[4]; Pt 8, Glioblastoma Multiforme, FLAIR, 9.7 months from treatment, baseline 32.7
  Tumor size: 23.9 cm^3
[4]; Pt 8, Glioblastoma Multiforme, FLAIR, 11.1 months from treatment, baseline 32.7
  Tumor size: 30.5 cm^3
[4]; Pt 8, Glioblastoma Multiforme, FLAIR, 15.9 months from treatment, baseline 32.7
  Tumor size: 28.9 cm^3
[4]; Pt 8, Glioblastoma Multiforme, Parietal lobe
  Stable Disease Duration (months): 15.9 months
[4]; Pt 19, Astrocytoma, Anaplastic, Frontal lobe
  Stable Disease Duration (months): 10.6 months
[4]; Pt 26, Astrocytoma, NOS, Enhancement, 2.6 months from treatment, baseline 28.1
  Tumor size: 31.9 cm^2
[4]; Pt 26, Astrocytoma, NOS, Enhancement, 4.4 months from treatment, baseline 28.1
  Tumor size: 34.7 cm^2
[4]; Pt 26, Astrocytoma, NOS, Enhancement, 5.9 months from treatment, baseline 28.1
  Tumor size: 34.7 cm^2
[4]; Pt 26, Astrocytoma, NOS, Supratentorial
  Stable Disease Duration (months): 5.9 months
[4]; Stratum I, 16 evaluable
  Radiographic response after course 1: CR or PR (number of patients): 0
  Radiographic response after course 1: PD (number of patients): 10
  Radiographic response after course 1: PD (percent of evaluable patients): 63%
  Radiographic response after course 1: SD (number of patients): 6
  Radiographic response after course 1: SD (percent of evaluable patients): 38%
[4]; Stratum I, patients evaluable for response
  patients with sustained (prolonged) stable disease of possible clinical benefit: 4 of 16
[4]; Stratum II, 6 evaluable
  Radiographic response after course 1: CR or PR (number of patients): 0
  Radiographic response after course 1: PD (number of patients): 5
  Radiographic response after course 1: PD (percent of evaluable patients): 83%
  Radiographic response after course 1: SD (number of patients): 1
  Radiographic response after course 1: SD (percent of evaluable patients): 17%
[4]; either stratum
  objective responses: No objectives responses
[5]
  most serious drug-related toxicities: grade 3 liver enzyme abnormalities, arthralgia and hallucinations
[6]; [8]
  CL (total body clearance): 28.7 ± 12.8 ^a liter/h/m^2
  Vz (apparent volume of distribution): 43.3 ± 20.3 liter/m^2
[6]; [9]
  CL (total body clearance): 38.0 ± 28.7 liter/h/m^2
  Vz (apparent volume of distribution): 65.5 ± 26.7 liter/m^2
[6]; [10]
  CL (total body clearance): 21.3 ± 11.5 liter/h/m^2
  Vz (apparent volume of distribution): 39.1 ± 24.8 liter/m^2
[6]; [11]
  CL (total body clearance): 26.1 ± 17.1 liter/h/m^2
  Vz (apparent volume of distribution): 37.2 ± 33.5 liter/m^2
[6]; [12]
  CL (total body clearance): 34.9 ± 24.9 liter/h/m^2
  Vz (apparent volume of distribution): 57.5 ± 34.6 liter/m^2
[6]; [13]
  CL (total body clearance): 33.1 liter/h/m^2
  Vz (apparent volume of distribution): 23.5 liter/m^2
[6]; [14]
  CL (total body clearance): 48.0 ± 5.1 liter/h/m^2
  Vz (apparent volume of distribution): 74.3 ± 71.7 liter/m^2
[6]; [15]
  CL (total body clearance): 27.8 ± 11.4 liter/h/m^2
  Vz (apparent volume of distribution): 45.5 ± 26.7 liter/m^2
[6]; [16]
  CL (total body clearance): 32.0 ± 13.1 liter/h/m^2
  Vz (apparent volume of distribution): 47.1 ± 30.6 liter/m^2
[6]; 48 mg/m2, t1/2,z (terminal phase half-life), Stratum II (EIACD), 48 mg/m^2 IV, week 1, 2 patients, mean ± SD
  half-life: 1.07 ± 0.9 h
[6]; 65 mg/m2, t1/2,z (terminal phase half-life), Stratum II (EIACD), 65 mg/m^2 IV, week 1, 6 patients, mean ± SD
  half-life: 1.13 ± 0.62 h
[7]; intravenously twice weekly
  MTD in adults: 145 mg/m^2
[7]
  Dose-limiting toxicities in adults: headache, nausea, and vomiting

## Cc1cc(C(=O)O)[nH]c1C=C1C(=O)Nc2ccccc21 [SU6595]
[6]; [17]
  Relative extent of metabolism (%), AUC(0-t) metabolite/parent: SU6595: 57.4 ± 36.4%
[6]; [18]
  Relative extent of metabolism (%), AUC(0-t) metabolite/parent: SU6595: 72.9 ± 43.9%
[6]; [19]
  Relative extent of metabolism (%), AUC(0-t) metabolite/parent: SU6595: 37.4 ± 25.3%
[6]; [20]
  Relative extent of metabolism (%), AUC(0-t) metabolite/parent: SU6595: 72.4 ± 26.1%
[6]; [21]
  Relative extent of metabolism (%), AUC(0-t) metabolite/parent: SU6595: 50.1 ± 33.2%
[6]; [22]
  Relative extent of metabolism (%), AUC(0-t) metabolite/parent: SU6595: 72.8 ± 39.1%
[6]; [23]
  Relative extent of metabolism (%), AUC(0-t) metabolite/parent: SU6595: 55.2%
[6]; [24]
  Relative extent of metabolism (%), AUC(0-t) metabolite/parent: SU6595: 26.4 ± 1.1%
[6]; [25]
  Relative extent of metabolism (%), AUC(0-t) metabolite/parent: SU6595: 57.3 ± 20.4%
[6]; [26]
  Relative extent of metabolism (%), AUC(0-t) metabolite/parent: SU6595: 48.1 ± 21.3%

## Cc1cc(CO)[nH]c1/C=C1\C(=O)Nc2ccccc21 [SU9838]
[6]; [17]
  Relative extent of metabolism (%), AUC(0-t) metabolite/parent: SU9838: 3.95 ± 1.59%
[6]; [18]
  Relative extent of metabolism (%), AUC(0-t) metabolite/parent: SU9838: 4.41 ± 2.28%
[6]; [19]
  Relative extent of metabolism (%), AUC(0-t) metabolite/parent: SU9838: 3.98 ± 2.13%
[6]; [20]
  Relative extent of metabolism (%), AUC(0-t) metabolite/parent: SU9838: 5.24 ± 0.81%
[6]; [21]
  Relative extent of metabolism (%), AUC(0-t) metabolite/parent: SU9838: 3.96 ± 1.68%
[6]; [22]
  Relative extent of metabolism (%), AUC(0-t) metabolite/parent: SU9838: 4.59 ± 2.11%
[6]; [23]
  Relative extent of metabolism (%), AUC(0-t) metabolite/parent: SU9838: 2.44%
[6]; [24]
  Relative extent of metabolism (%), AUC(0-t) metabolite/parent: SU9838: 4.07 ± 1.37%
[6]; [25]
  Relative extent of metabolism (%), AUC(0-t) metabolite/parent: SU9838: 5.72 ± 3.41%
[6]; [26]
  Relative extent of metabolism (%), AUC(0-t) metabolite/parent: SU9838: 4.82 ± 2.69%
